In US10681909B2, “Herbicidal triazoles” (FMC Corporation, priority 2014, dated 2020):

Tests used:
barnyardgrass = experiment: Test C preemergence; format: in vivo, Echinochloa crus-galli; conditions: for Plant response rating (scale of 0 to 100 where 0 is no effect and 100 is complete control): Barnyardgrass, preemergence; for Barnyardgrass plant response rating (0 to 100): Preemergence, visual rating after 13 to 15 d
Description: (§1) Seeds of plant species selected from blackgrass (Alopecurus myosuroides), ryegrass, Italian (Italian ryegrass, Lolium multiflorum), wheat (winter wheat, Triticum aestivum), galium (catchweed bedstraw, Galium aparine), corn (Zea mays), crabgrass, large (large crabgrass, Digitaria sanguinalis), foxtail, giant, (giant foxtail, Setaria faberii), johnsongrass (Sorghum halepense), lambsquarters (Chenopodium album), morningglory (Ipomoea coccinea), nutsedge, yellow (yellow nutsedge, Cyperus esculentus), pigweed (Amaranthus retroflexus), ragweed (common ragweed, Ambrosia elatior), soybean (Glycine max), barnyardgrass (Echinochloa crus-galli), oilseed rape (Brassica napus), waterhemp (common waterhemp, Amaranthus rudis), and velvetleaf (Abutilon theophrasti) were planted into a blend of loam soil and sand and treated preemergence with test chemicals formulated in a non-phytotoxic solvent mixture which included a surfactant. At the same time, plants selected from these crop and weed species and also chickweed (common chickweed, Stellaria media), oat, wild (wild oat, Avena fatua), and kochia (Kochia scoparia), were planted in pots containing Sunshine Redi-Earth® planting medium comprising spaghnum peat moss, vermiculite, starter nutrients and dolomitic limestone and treated with postemergence applications of test chemicals formulated in the same manner. Plants ranged in height from 2 to 18 cm (1- to 4-leaf stage) for postemergence treatments. […] A dash (-) response means no test result.

ragweed = experiment: Test C preemergence; format: in vivo, Ambrosia elatior; conditions: for Ragweed plant response rating (0 to 100): Preemergence, visual rating after 13 to 15 d; for Plant response rating (scale of 0 to 100 where 0 is no effect and 100 is complete control): Ragweed, preemergence
Description: as §1

canarygrass = experiment: Test D postemergence; format: in vivo, Phalaris minor; conditions: scale 0 to 100
Description: (§2) Seeds of plant species selected from bluegrass (annual bluegrass, Poa annua), blackgrass (Alopecurus myosuroides), canarygrass (Phalaris minor), chickweed (common chickweed, Stellaria media), galium (catchweed bedstraw, Galium aparine), bromegrass, down (downy bromegrass, Bromus tectorum), Russian thistle (Salsola kali), field poppy (Papaver rhoeas), field violet (Viola arvensis), foxtail, green (green foxtail, Setaria viridis), deadnettle (henbit deadnettle, Lamium amplexicaule), ryegrass, Ital. (Italian ryegrass, Lolium multiflorum), kochia (Kochia scoparia), lambsquarters (Chenopodium album), oilseed rape (Brassica napus), pigweed (Amaranthus retroflexus), chamomile (scentless chamomile, Matricaria inodora), speedwell (bird's-eye speedwell, Veronica persica), barley, spring (spring barley, Hordeum vulgare), wheat, spring (spring wheat, Triticum aestivum), buckwheat, wild (wild buckwheat, Polygonum convolvulus), wild mustard (Sinapis arvensis), oat, wild (wild oat, Avena fatua), radish, wild (wild radish, Raphanus raphanistrum), […]), barley, winter (winter barley, Hordeum vulgare), and wheat, winter (winter wheat, Triticum aestivum) were planted into a silt loam soil and treated preemergence with test chemicals formulated in a non-phytotoxic solvent mixture which included a surfactant. At the same time, these species were planted in pots containing Sunshine Redi-Earth® planting medium comprising spaghnum peat moss, vermiculite, starter nutrients and dolomitic limestone and treated with postemergence applications of the test chemicals formulated in the same manner. Plants ranged in height from 2 to 18 cm (1- to 4-leaf stage). Treated plants and controls were maintained in a controlled growth environment for 14 to 21 d after which time all species were compared to controls and visually evaluated. […] A dash (-) response means no test result.

chickweed = experiment: Test D postemergence; format: in vivo, Stellaria media; conditions: scale 0 to 100
Description: as §2

foxtail, giant = experiment: Test C preemergence; format: in vivo, Setaria faberii; conditions: for Plant response rating (scale of 0 to 100 where 0 is no effect and 100 is complete control): Foxtail, Giant, preemergence; for Foxtail, Giant plant response rating (0 to 100): Preemergence, visual rating after 13 to 15 d
Description: as §1

bromegrass, down = experiment: Test D preemergence; format: in vivo, Bromus tectorum; conditions: for Plant response rating: Bromegrass, Down: scale 0 to 100
Description: as §2

corn = experiment: Test C preemergence; format: in vivo, Zea mays; conditions: for Plant response rating (scale of 0 to 100 where 0 is no effect and 100 is complete control): Corn, preemergence; for Corn plant response rating (0 to 100): Preemergence, visual rating after 13 to 15 d
Description: as §1

oat, wild = experiment: Test D preemergence; format: in vivo, Avena fatua; conditions: for Plant response rating: Oat, Wild: scale 0 to 100
Description: as §2

wheat, winter = experiment: Test D preemergence; format: in vivo, Triticum aestivum; conditions: for Plant response rating: Wheat, Winter: scale 0 to 100
Description: as §2

wheat, spring = experiment: Test D preemergence; format: in vivo, Triticum aestivum; conditions: for Plant response rating: Wheat, Spring: scale 0 to 100
Description: as §2

velvetleaf = experiment: Test C preemergence; format: in vivo, Abutilon theophrasti; conditions: for Velvetleaf plant response rating (0 to 100): Preemergence, visual rating after 13 to 15 d
Description: as §1

lambsquarters = experiment: Test C preemergence; format: in vivo, Chenopodium album; conditions: for Plant response rating (scale of 0 to 100 where 0 is no effect and 100 is complete control): Lambsquarters, preemergence; for Lambsquarters plant response rating (0 to 100): Preemergence, visual rating after 13 to 15 d
Description: as §1

foxtail, green = experiment: Test D postemergence; format: in vivo, Setaria viridis; conditions: scale 0 to 100
Description: as §2

windgrass = experiment: Test D preemergence; format: in vivo, Apera spica-venti; conditions: for Plant response rating: Windgrass: scale 0 to 100
Description: as §2

galium = experiment: Test C preemergence; format: in vivo, Galium aparine; conditions: for Plant response rating (scale of 0 to 100 where 0 is no effect and 100 is complete control): Galium, preemergence; for Galium plant response rating (0 to 100): Preemergence, visual rating after 13 to 15 d
Description: as §1

barley, spring = experiment: Test D preemergence; format: in vivo, Hordeum vulgare; conditions: for Plant response rating: Barley, Spring: scale 0 to 100
Description: as §2

barley, winter = experiment: Test D preemergence; format: in vivo, Hordeum vulgare; conditions: for Plant response rating: Barley, Winter: scale 0 to 100
Description: as §2

[1] = 16 g ai/ha, 0 is no effect, 100 is complete control

SMILES: CCOc1nc(-c2ccc(C(F)(F)F)cc2)nn1Cc1ccnc(C(F)(F)F)c1 [Compound 35, 4-[[5-ethoxy-3-[4-(trifluoromethyl)phenyl]-1H-1,2,4-triazole-1-yl]methyl]-2-(trifluoromethyl)pyridine]
- Plant response rating (scale of 0 to 100 where 0 is no effect and 100 is complete control) (barnyardgrass; 125 g ai/ha): 98
- Plant response rating (scale of 0 to 100 where 0 is no effect and 100 is complete control) (barnyardgrass; 250 g ai/ha): 100
- Barnyardgrass plant response rating (0 to 100) (barnyardgrass; 31 g ai/ha): 85
- Barnyardgrass plant response rating (0 to 100) (barnyardgrass; 62 g ai/ha): 90
- Ragweed plant response rating (0 to 100) (ragweed; 31 g ai/ha): 60
- Ragweed plant response rating (0 to 100) (ragweed; 62 g ai/ha): 75
- Plant response rating (scale of 0 to 100 where 0 is no effect and 100 is complete control) (ragweed; 125 g ai/ha): 85
- Plant response rating (scale of 0 to 100 where 0 is no effect and 100 is complete control) (ragweed; 250 g ai/ha): 90
- Plant response rating: Canarygrass (canarygrass; 16 g ai/ha): 65
- Plant response rating: Canarygrass (canarygrass; 31 g ai/ha): 70
- Plant response rating: Canarygrass (canarygrass; 62 g ai/ha): 75
- Plant response rating: Canarygrass (canarygrass; 125 g ai/ha): 80
- Plant response rating: Chickweed (chickweed; 16 g ai/ha): 70
- Plant response rating: Chickweed (chickweed; 31 g ai/ha): 85
- Plant response rating: Chickweed (chickweed; 62 g ai/ha): 100
- Plant response rating: Chickweed (chickweed; 125 g ai/ha): 100
- Plant response rating (scale of 0 to 100 where 0 is no effect and 100 is complete control) (foxtail, giant; 125 g ai/ha): 100
- Plant response rating (scale of 0 to 100 where 0 is no effect and 100 is complete control) (foxtail, giant; 250 g ai/ha): 100
- Foxtail, Giant plant response rating (0 to 100) (foxtail, giant; 31 g ai/ha): 98
- Foxtail, Giant plant response rating (0 to 100) (foxtail, giant; 62 g ai/ha): 100
- Plant response rating (0 to 100), Bromegrass, Down (bromegrass, down; [1]): 15
- Plant response rating: Bromegrass, Down (bromegrass, down; 31 g ai/ha): 40
- Plant response rating: Bromegrass, Down (bromegrass, down; 62 g ai/ha): 60
- Plant response rating: Bromegrass, Down (bromegrass, down; 125 g ai/ha): 75
- Plant response rating (scale of 0 to 100 where 0 is no effect and 100 is complete control) (corn; 125 g ai/ha): 35
- Plant response rating (scale of 0 to 100 where 0 is no effect and 100 is complete control) (corn; 250 g ai/ha): 45
- Corn plant response rating (0 to 100) (corn; 31 g ai/ha): 5
- Corn plant response rating (0 to 100) (corn; 62 g ai/ha): 15
- Plant response rating (0 to 100), Oat, Wild (oat, wild; [1]): 40
- Plant response rating: Oat, Wild (oat, wild; 62 g ai/ha): 75
- Plant response rating: Oat, Wild (oat, wild; 125 g ai/ha): 80
- Plant response rating (0 to 100), Wheat, Winter (wheat, winter; [1]): 20
- Plant response rating: Wheat, Winter (wheat, winter; 62 g ai/ha): 40
- Plant response rating: Wheat, Winter (wheat, winter; 125 g ai/ha): 45
- Plant response rating (0 to 100), Wheat, Spring (wheat, spring; [1]): 25
- Plant response rating: Wheat, Spring (wheat, spring; 62 g ai/ha): 50
- Plant response rating: Wheat, Spring (wheat, spring; 125 g ai/ha): 50
- Velvetleaf plant response rating (0 to 100) (velvetleaf; 31 g ai/ha): 70
- Velvetleaf plant response rating (0 to 100) (velvetleaf; 62 g ai/ha): 65
- Plant response rating (scale of 0 to 100 where 0 is no effect and 100 is complete control) (velvetleaf; Velvetleaf, preemergence, 250 g ai/ha): 90
- Plant response rating (scale of 0 to 100 where 0 is no effect and 100 is complete control) (lambsquarters; 125 g ai/ha): 100
- Plant response rating (scale of 0 to 100 where 0 is no effect and 100 is complete control) (lambsquarters; 250 g ai/ha): 98
- Lambsquarters plant response rating (0 to 100) (lambsquarters; 31 g ai/ha): 98
- Lambsquarters plant response rating (0 to 100) (lambsquarters; 62 g ai/ha): 98
- Plant response rating: Foxtail, Green (foxtail, green; 16 g ai/ha): 70
- Plant response rating: Foxtail, Green (foxtail, green; 31 g ai/ha): 80
- Plant response rating: Foxtail, Green (foxtail, green; 62 g ai/ha): 95
- Plant response rating: Foxtail, Green (foxtail, green; 125 g ai/ha): 95
- Plant response rating (0 to 100), Windgrass (windgrass; [1]): 70
- Plant response rating: Windgrass (windgrass; 62 g ai/ha): 85
- Plant response rating: Windgrass (windgrass; 125 g ai/ha): 100
- Plant response rating (scale of 0 to 100 where 0 is no effect and 100 is complete control) (galium; 125 g ai/ha): 90
- Plant response rating (scale of 0 to 100 where 0 is no effect and 100 is complete control) (galium; 250 g ai/ha): 90
- Galium plant response rating (0 to 100) (galium; 31 g ai/ha): 50
- Galium plant response rating (0 to 100) (galium; 62 g ai/ha): 80
- Plant response rating (0 to 100), Barley, Spring (barley, spring; [1]): 30
- Plant response rating: Barley, Spring (barley, spring; 31 g ai/ha): 40
- Plant response rating: Barley, Spring (barley, spring; 62 g ai/ha): 40
- Plant response rating: Barley, Spring (barley, spring; 125 g ai/ha): 50
- Plant response rating (0 to 100), Barley, Winter (barley, winter; [1]): 25
- Plant response rating: Barley, Winter (barley, winter; 31 g ai/ha): 40
- Plant response rating: Barley, Winter (barley, winter; 62 g ai/ha): 40
- Plant response rating: Barley, Winter (barley, winter; 125 g ai/ha): 50
